ChEMBL document CHEMBL1146952, “Synthesis and antibacterial activities of chiral 1,3-oxazinan-2-one derivatives” (2006)
≈ marks a conversion by molar mass, not a printed value. Calls of active or inactive are those of the source. The rule behind the calls is not given here.

Legend:
Type in all cases: functional
Staphylococcus aureus [1] = test: Antibacterial activity against Staphylococcus aureus ATCC 29213
Staphylococcus aureus [2] = test: Antibacterial activity against Staphylococcus aureus ATCC 43300
Enterococcus faecalis = test: Antibacterial activity against Enterococcus faecalis ATCC 29212
Bacillus subtilis = test: Antibacterial activity against Bacillus subtilis PY79

In the case of `CN1C[C@@H](CN(Cc2ccccc2)Cc2ccccc2Br)OC1=O`, the MIC50 (Staphylococcus aureus [1]) is reported as 18 µg/mL (≈ 46.2 µM), the MIC50 (Staphylococcus aureus [2]) is reported as 21 µg/mL (≈ 53.9 µM) and the MIC50 (Enterococcus faecalis) is reported as 7.4 µg/mL (≈ 19 µM). It also gave an MIC50 (Bacillus subtilis) of 22 µg/mL (≈ 56.5 µM).
Work on `CCN1CC[C@@H](CN(Cc2ccccc2)Cc2ccc(F)cc2F)OC1=O` yielded an MIC50 (Staphylococcus aureus [1]) of 45 µg/mL (≈ 120 µM), an MIC50 (Staphylococcus aureus [2]) of 50.5 µg/mL (≈ 135 µM) and an MIC50 (Enterococcus faecalis) of 59.5 µg/mL (≈ 159 µM). The MIC50 (Bacillus subtilis) was 38 µg/mL (≈ 101 µM).
For `CN1CC[C@@H](CN(Cc2ccccc2)Cc2ccc([N+](=O)[O-])cc2)OC1=O`, the MIC50 (Staphylococcus aureus [1]) was 81 µg/mL (≈ 219 µM), the MIC50 (Staphylococcus aureus [2]) was “inactive” and the MIC50 (Enterococcus faecalis) was 119 µg/mL (≈ 322 µM). It also gave an MIC50 (Bacillus subtilis) of 98 µg/mL (≈ 265 µM).
With `CCN1CC[C@@H](CN(Cc2ccccc2)Cc2ccccc2C)OC1=O` the MIC50 (Staphylococcus aureus [1]) was 22 µg/mL (≈ 62.4 µM), the MIC90 (Staphylococcus aureus [1]) was 29.8 µg/mL (≈ 84.5 µM) and the MIC50 (Staphylococcus aureus [2]) was 22.5 µg/mL (≈ 63.8 µM). It also gave an MIC50 (Enterococcus faecalis) of 8.1 µg/mL (≈ 23 µM), an MIC50 (Bacillus subtilis) of 26 µg/mL (≈ 73.8 µM) and an MIC90 (Bacillus subtilis) of 59.5 µg/mL (≈ 169 µM).
For `CCN1CC[C@@H](CN(Cc2ccccc2)Cc2cccc(C#N)c2)OC1=O`, the MIC50 (Staphylococcus aureus [1]) was 238 µg/mL (≈ 655 µM), the MIC50 (Staphylococcus aureus [2]) was “inactive” and the MIC50 (Enterococcus faecalis) was 45 µg/mL (≈ 124 µM). It also gave an MIC50 (Bacillus subtilis) of 238 µg/mL (≈ 655 µM).
With `CCN1CC[C@@H](CN(Cc2ccccc2)Cc2cccnc2)OC1=O` the MIC50 (Staphylococcus aureus [1]) was “inactive”, the MIC50 (Staphylococcus aureus [2]) was “inactive” and the MIC50 (Enterococcus faecalis) was 238 µg/mL (≈ 701 µM). The MIC50 (Bacillus subtilis) was “inactive”.
Compound `O=C(N[C@H](CO)[C@H](O)c1ccc([N+](=O)[O-])cc1)C(Cl)Cl` [CHLORAMPHENICOL] has an MIC90 (Staphylococcus aureus [1]) of 7.44 µg/mL (≈ 23 µM), an MIC90 (Staphylococcus aureus [2]) of 7.44 µg/mL (≈ 23 µM) and an MIC90 (Enterococcus faecalis) of 4 µg/mL (≈ 12.4 µM). It also gave an MIC90 (Bacillus subtilis) of 2 µg/mL (≈ 6.19 µM).
`CCN1CC[C@@H](CN(Cc2ccccc2)Cc2cc(F)cc(F)c2)OC1=O` was tested, and the MIC50 (Staphylococcus aureus [1]) was 40 µg/mL (≈ 107 µM), the MIC50 (Staphylococcus aureus [2]) was 45 µg/mL (≈ 120 µM) and the MIC50 (Enterococcus faecalis) was 37 µg/mL (≈ 98.8 µM). The MIC50 (Bacillus subtilis) was 43 µg/mL (≈ 115 µM).
With `CN1C[C@@H](CN(Cc2ccccc2)Cc2ccc(F)c(F)c2)OC1=O` the MIC50 (Staphylococcus aureus [1]) was 119 µg/mL (≈ 344 µM), the MIC50 (Staphylococcus aureus [2]) was “inactive” and the MIC50 (Enterococcus faecalis) was “inactive”. For the same compound, the MIC50 (Bacillus subtilis) was 80 µg/mL (≈ 231 µM).
In the case of `CCN1CC[C@@H](CN(Cc2ccccc2)Cc2ccc(Cl)c(Cl)c2)OC1=O`, the MIC50 (Staphylococcus aureus [1]) is reported as 5.6 µg/mL (≈ 13.7 µM), the MIC90 (Staphylococcus aureus [1]) is reported as 9.85 µg/mL (≈ 24.2 µM) and the MIC50 (Staphylococcus aureus [2]) is reported as 6.56 µg/mL (≈ 16.1 µM). The MIC50 (Enterococcus faecalis) was “inactive”, the MIC50 (Bacillus subtilis) was 5 µg/mL (≈ 12.3 µM) and the MIC90 (Bacillus subtilis) was 7.44 µg/mL (≈ 18.3 µM).
`CN1CC[C@@H](CN(Cc2ccccc2)Cc2ccc(C#N)cc2)OC1=O` was tested, and the MIC50 (Staphylococcus aureus [1]) was 200 µg/mL (≈ 572 µM), the MIC50 (Staphylococcus aureus [2]) was “inactive” and the MIC50 (Enterococcus faecalis) was 238 µg/mL (≈ 681 µM). For the same compound, the MIC50 (Bacillus subtilis) was 238 µg/mL (≈ 681 µM).
In the case of `CCN1CC[C@@H](CN(Cc2ccccc2)Cc2ccc3ccccc3c2)OC1=O`, the MIC50 (Staphylococcus aureus [1]) is reported as 15 µg/mL (≈ 38.6 µM), the MIC50 (Staphylococcus aureus [2]) is reported as “inactive” and the MIC50 (Enterococcus faecalis) is reported as 13 µg/mL (≈ 33.5 µM). The MIC50 (Bacillus subtilis) was 29 µg/mL (≈ 74.6 µM).
Work on `CN1CC[C@@H](CN(Cc2ccccc2)Cc2ccc(F)cc2F)OC1=O` yielded an MIC50 (Staphylococcus aureus [1]) of 50 µg/mL (≈ 139 µM), an MIC50 (Staphylococcus aureus [2]) of 72 µg/mL (≈ 200 µM) and an MIC50 (Enterococcus faecalis) of 59.5 µg/mL (≈ 165 µM). For the same compound, the MIC50 (Bacillus subtilis) was 55 µg/mL (≈ 153 µM).
In the case of `CCN1CC[C@@H](CN(Cc2ccccc2)Cc2ccc(C#N)cc2)OC1=O`, the MIC50 (Staphylococcus aureus [1]) is reported as 180 µg/mL (≈ 495 µM), the MIC50 (Staphylococcus aureus [2]) is reported as 59.5 µg/mL (≈ 164 µM) and the MIC50 (Enterococcus faecalis) is reported as 12 µg/mL (≈ 33 µM). It also gave an MIC50 (Bacillus subtilis) of 10 µg/mL (≈ 27.5 µM).
In the case of `CN1CC[C@@H](CN(Cc2ccccc2)Cc2cccc(C#N)c2)OC1=O`, the MIC50 (Staphylococcus aureus [1]) is reported as 180 µg/mL (≈ 515 µM), the MIC50 (Staphylococcus aureus [2]) is reported as 238 µg/mL (≈ 681 µM) and the MIC50 (Enterococcus faecalis) is reported as 7.4 µg/mL (≈ 21.2 µM). It also gave an MIC50 (Bacillus subtilis) of 180 µg/mL (≈ 515 µM).
`CCN1CC[C@@H](CN(Cc2ccccc2)Cc2cccc(OC)c2)OC1=O` was tested, and the MIC50 (Staphylococcus aureus [1]) was 90 µg/mL (≈ 244 µM), the MIC50 (Staphylococcus aureus [2]) was 90 µg/mL (≈ 244 µM) and the MIC50 (Enterococcus faecalis) was 80.5 µg/mL (≈ 218 µM). It also gave an MIC50 (Bacillus subtilis) of 95 µg/mL (≈ 258 µM).
With `CN1CC[C@@H](CN(Cc2ccccc2)Cc2ccccc2[N+](=O)[O-])OC1=O` the MIC50 (Staphylococcus aureus [1]) was 179 µg/mL (≈ 485 µM), the MIC50 (Staphylococcus aureus [2]) was “inactive” and the MIC50 (Enterococcus faecalis) was 238 µg/mL (≈ 644 µM). For the same compound, the MIC50 (Bacillus subtilis) was 238 µg/mL (≈ 644 µM).
In the case of `CCN1CC[C@@H](CN(Cc2ccccc2)Cc2ccccn2)OC1=O`, the MIC50 (Staphylococcus aureus [1]) is reported as “inactive”, the MIC50 (Staphylococcus aureus [2]) is reported as “inactive” and the MIC50 (Enterococcus faecalis) is reported as “inactive”. For the same compound, the MIC50 (Bacillus subtilis) was “inactive”.
For `CN1C[C@@H](CN(Cc2ccccc2)Cc2ccc(F)cc2)OC1=O`, the MIC50 (Staphylococcus aureus [1]) was “inactive”, the MIC50 (Staphylococcus aureus [2]) was “inactive” and the MIC50 (Enterococcus faecalis) was “inactive”. The MIC50 (Bacillus subtilis) was “inactive”.
For `CN1CC[C@@H](CN(Cc2ccccc2)Cc2ccccc2C#N)OC1=O`, the MIC50 (Staphylococcus aureus [1]) was 166 µg/mL (≈ 475 µM), the MIC50 (Staphylococcus aureus [2]) was 180 µg/mL (≈ 515 µM) and the MIC50 (Enterococcus faecalis) was 59.5 µg/mL (≈ 170 µM). It also gave an MIC50 (Bacillus subtilis) of 180 µg/mL (≈ 515 µM).
In the case of `CN1CC[C@@H](CN(Cc2ccccc2)Cc2ccc(F)cc2)OC1=O`, the MIC50 (Staphylococcus aureus [1]) is reported as 87.1 µg/mL (≈ 254 µM), the MIC50 (Staphylococcus aureus [2]) is reported as 119 µg/mL (≈ 348 µM) and the MIC50 (Enterococcus faecalis) is reported as 120 µg/mL (≈ 350 µM). It also gave an MIC50 (Bacillus subtilis) of 95 µg/mL (≈ 277 µM).
For `CN1CC[C@@H](CN(Cc2ccccc2)Cc2cccc([N+](=O)[O-])c2)OC1=O`, the MIC50 (Staphylococcus aureus [1]) was 138 µg/mL (≈ 374 µM), the MIC50 (Staphylococcus aureus [2]) was “inactive” and the MIC50 (Enterococcus faecalis) was 119 µg/mL (≈ 322 µM). For the same compound, the MIC50 (Bacillus subtilis) was 238 µg/mL (≈ 644 µM).
For `CCN1CC[C@@H](CN(Cc2ccccc2)Cc2ccccc2C#N)OC1=O`, the MIC50 (Staphylococcus aureus [1]) was 130 µg/mL (≈ 358 µM), the MIC50 (Staphylococcus aureus [2]) was 180 µg/mL (≈ 495 µM) and the MIC50 (Enterococcus faecalis) was 33 µg/mL (≈ 90.8 µM). The MIC50 (Bacillus subtilis) was 160 µg/mL (≈ 440 µM).
For `CN1C[C@@H](CN(Cc2ccccc2)Cc2ccc(F)cc2F)OC1=O`, the MIC50 (Staphylococcus aureus [1]) was 85 µg/mL (≈ 245 µM), the MIC50 (Staphylococcus aureus [2]) was 119 µg/mL (≈ 344 µM) and the MIC50 (Enterococcus faecalis) was “inactive”. The MIC50 (Bacillus subtilis) was 90 µg/mL (≈ 260 µM).
Work on `CCN1CC[C@@H](CN(Cc2ccccc2)Cc2ccccc2[N+](=O)[O-])OC1=O` yielded an MIC50 (Staphylococcus aureus [1]) of 72 µg/mL (≈ 188 µM), an MIC50 (Staphylococcus aureus [2]) of 100 µg/mL (≈ 261 µM) and an MIC50 (Enterococcus faecalis) of 43 µg/mL (≈ 112 µM). For the same compound, the MIC50 (Bacillus subtilis) was 100 µg/mL (≈ 261 µM).
For `CCN1CC[C@@H](CN(Cc2ccccc2)Cc2cccc3ccccc23)OC1=O`, the MIC50 (Staphylococcus aureus [1]) was 10 µg/mL (≈ 25.7 µM), the MIC90 (Staphylococcus aureus [1]) was 14.9 µg/mL (≈ 38.4 µM) and the MIC50 (Staphylococcus aureus [2]) was 35 µg/mL (≈ 90.1 µM). The MIC50 (Enterococcus faecalis) was 7.4 µg/mL (≈ 19 µM), the MIC50 (Bacillus subtilis) was 7.6 µg/mL (≈ 19.6 µM) and the MIC90 (Bacillus subtilis) was 30 µg/mL (≈ 77.2 µM).
In the case of `CN1C[C@@H](CN(Cc2ccccc2)Cc2ccc(Br)cc2)OC1=O`, the MIC50 (Staphylococcus aureus [1]) is reported as 20 µg/mL (≈ 51.4 µM), the MIC50 (Staphylococcus aureus [2]) is reported as 59.5 µg/mL (≈ 153 µM) and the MIC50 (Enterococcus faecalis) is reported as “inactive”. For the same compound, the MIC50 (Bacillus subtilis) was 22 µg/mL (≈ 56.5 µM).
Work on `CCN1CC[C@@H](CN(Cc2ccccc2)Cc2cccc([N+](=O)[O-])c2)OC1=O` yielded an MIC50 (Staphylococcus aureus [1]) of 90 µg/mL (≈ 235 µM), an MIC50 (Staphylococcus aureus [2]) of 22 µg/mL (≈ 57.4 µM) and an MIC50 (Enterococcus faecalis) of 47 µg/mL (≈ 123 µM). The MIC50 (Bacillus subtilis) was 108 µg/mL (≈ 282 µM).
Compound `CN1CC[C@@H](CN(Cc2ccccc2)Cc2ccc3ccccc3c2)OC1=O` has an MIC50 (Staphylococcus aureus [1]) of 11.5 µg/mL (≈ 30.7 µM), an MIC90 (Staphylococcus aureus [1]) of 14.9 µg/mL (≈ 39.8 µM) and an MIC50 (Staphylococcus aureus [2]) of 13 µg/mL (≈ 34.7 µM). It also gave an MIC50 (Enterococcus faecalis) of 14.9 µg/mL (≈ 39.8 µM), an MIC50 (Bacillus subtilis) of 12 µg/mL (≈ 32 µM) and an MIC90 (Bacillus subtilis) of 30 µg/mL (≈ 80.1 µM).
`CCN1CC[C@@H](CN(Cc2ccccc2)Cc2c(F)cccc2F)OC1=O` was tested, and the MIC50 (Staphylococcus aureus [1]) was 47 µg/mL (≈ 126 µM), the MIC50 (Staphylococcus aureus [2]) was 70 µg/mL (≈ 187 µM) and the MIC50 (Enterococcus faecalis) was 59.5 µg/mL (≈ 159 µM). It also gave an MIC50 (Bacillus subtilis) of 77 µg/mL (≈ 206 µM).
`CCN1CC[C@@H](CN(Cc2ccccc2)Cc2ccc(F)cc2)OC1=O` showed an MIC50 (Staphylococcus aureus [1]) of 64 µg/mL (≈ 180 µM), an MIC50 (Staphylococcus aureus [2]) of 47 µg/mL (≈ 132 µM) and an MIC50 (Enterococcus faecalis) of 35 µg/mL (≈ 98.2 µM). The MIC50 (Bacillus subtilis) was 42.5 µg/mL (≈ 119 µM).
`CCN1CC[C@@H](CN(Cc2ccccc2)Cc2ccc([N+](=O)[O-])cc2)OC1=O` was tested, and the MIC50 (Staphylococcus aureus [1]) was “inactive”, the MIC50 (Staphylococcus aureus [2]) was “inactive” and the MIC50 (Enterococcus faecalis) was 45 µg/mL (≈ 117 µM). For the same compound, the MIC50 (Bacillus subtilis) was “inactive”.
